Measured values reported in the NIST ThermoML archive (doi:10.1021/je060390q).

Assays:
[1] = Maximal bubble pressure
[2] = xn = mol fraction of the nth substance listed; details: Maximal bubble pressure

Cc1ccccc1C [1,2-dimethylbenzene]
[1]
Details	surface tension liquid-gas [mN/m]
303.15 K	28.98
308.15 K	28.43
313.15 K	27.88
318.15 K	27.33
323.15 K	26.78
333.15 K	25.68
343.15 K	24.58

Cc1ccccc1C [1,2-dimethylbenzene] + CC(=O)O
surface tension liquid-gas [mN/m], [2]
Details	x2 = 0	x2 = 0.1001	x2 = 0.2001	x2 = 0.3002	x2 = 0.4	x2 = 0.5	x2 = 0.6213	x2 = 0.7001	x2 = 0.8	x2 = 0.9
303.15 K	28.98	28.81	28.56	28.32	28.07	27.81	27.5	27.29	27.03	26.74
308.15 K	28.43	28.26	28.03	27.78	27.54	27.29	26.98	26.78	26.5	26.24
313.15 K	27.88	27.71	27.49	27.25	27.01	26.77	26.47	26.26	25.99	25.74
318.15 K	27.33	27.17	26.94	26.7	26.47	26.23	25.94	25.74	25.48	25.22
323.15 K	26.78	26.62	26.4	26.17	25.95	25.71	25.42	25.22	24.97	24.72
333.15 K	25.68	25.54	25.32	25.11	24.89	24.67	24.4	24.2	23.97	23.73
343.15 K	24.58	24.45	24.24	24.04	23.84	23.63	23.37	23.18	22.95	22.73

Cc1cccc(C)c1 [1,3-dimethylbenzene]
[1]
Details	surface tension liquid-gas [mN/m]
303.15 K	27.58
308.15 K	27.04
313.15 K	26.49
318.15 K	25.94
323.15 K	25.38
333.15 K	24.27
343.15 K	23.18

Cc1cccc(C)c1 [1,3-dimethylbenzene] + CC(=O)O
surface tension liquid-gas [mN/m], [2]
Details	x2 = 0	x2 = 0.1001	x2 = 0.2001	x2 = 0.3	x2 = 0.4188	x2 = 0.4999	x2 = 0.5999	x2 = 0.7018	x2 = 0.7999	x2 = 0.9
303.15 K	27.58	27.51	27.4	27.3	27.17	27.07	26.95	26.87	26.71	26.56
308.15 K	27.04	26.97	26.87	26.77	26.63	26.55	26.47	26.36	26.19	26.06
313.15 K	26.49	26.42	26.33	26.24	26.1	26.03	25.95	25.84	25.68	25.56
318.15 K	25.94	25.88	25.78	25.69	25.58	25.5	25.42	25.32	25.17	25.04
323.15 K	25.38	25.32	25.24	25.15	25.04	24.98	24.9	24.76	24.65	24.55
333.15 K	24.27	24.23	24.16	24.08	23.98	23.92	23.85	23.74	23.65	23.55
343.15 K	23.18	23.15	23.08	23.02	22.93	22.88	22.82	22.72	22.63	22.55

CC(=O)O [acetic acid]
[1]
Details	surface tension liquid-gas [mN/m]
303.15 K	26.4
308.15 K	25.91
313.15 K	25.41
318.15 K	24.91
323.15 K	24.42
333.15 K	23.44
343.15 K	22.45

CC(=O)O [acetic acid] + Cc1cccc(C)c1
[2], x1 = 1
Details	surface tension liquid-gas [mN/m]
303.15 K	26.4
308.15 K	25.91
313.15 K	25.41
318.15 K	24.91
323.15 K	24.42
333.15 K	23.44
343.15 K	22.45

CC(=O)O [acetic acid] + Cc1ccccc1C
[2], x1 = 1
Details	surface tension liquid-gas [mN/m]
303.15 K	26.4
308.15 K	25.91
313.15 K	25.41
318.15 K	24.91
323.15 K	24.42
333.15 K	23.44
343.15 K	22.45
